Target: T1, 5-HT reuptake (Homo sapiens, UniProt P31645)
T1 construct: in a system with neurological tissue under physiological conditions; from tissue
Test: Functional measurement of the 5-HT uptake / inhibition of serotonin uptake (tritium-marked 5-HT, neurological tissue)
Assay type: biochemical
Conditions: uptake of tritium-marked 5-HT in neurological tissue under physiological conditions; three independent tests
Source text: Functional Measurement of the 5-HT-Uptake or the Inhibition of Serotonin Uptake
The uptake of tritium-marked 5-HT (serotonin) as a function of the concentration of the added substance 5-{α-[2-(methylamino)ethoxy]benzyl}-1-methyl-1H-pyrazole in a system with neurological tissue under physiological conditions.

T1 sequence (P31645 whole entry): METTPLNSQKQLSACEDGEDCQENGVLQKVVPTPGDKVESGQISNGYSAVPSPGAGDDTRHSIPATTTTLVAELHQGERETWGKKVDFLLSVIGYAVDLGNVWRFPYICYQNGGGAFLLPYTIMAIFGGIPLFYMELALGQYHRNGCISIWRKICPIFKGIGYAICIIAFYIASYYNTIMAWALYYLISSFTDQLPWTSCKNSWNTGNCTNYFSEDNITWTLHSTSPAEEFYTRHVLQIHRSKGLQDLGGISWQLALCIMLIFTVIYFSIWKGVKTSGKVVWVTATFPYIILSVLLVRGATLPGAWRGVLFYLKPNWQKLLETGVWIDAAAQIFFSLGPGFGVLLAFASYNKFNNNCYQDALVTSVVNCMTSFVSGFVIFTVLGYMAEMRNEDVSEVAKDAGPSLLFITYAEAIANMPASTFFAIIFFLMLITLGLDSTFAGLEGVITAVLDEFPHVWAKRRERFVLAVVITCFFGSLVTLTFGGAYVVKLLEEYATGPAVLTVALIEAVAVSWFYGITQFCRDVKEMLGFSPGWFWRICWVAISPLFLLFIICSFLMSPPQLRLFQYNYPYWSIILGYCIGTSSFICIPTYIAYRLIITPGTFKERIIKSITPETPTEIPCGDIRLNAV

Ki: 530 ± 100 nM
Compound: CNCCOC(c1ccccc1)c1ccnn1C (stereo not drawn) [5-{α-[2-(methylamino)ethoxy]benzyl}-1-methyl-1H-pyrazole]
